One assay has as its system CD8+ T cells. The assay can be described thus: In vitro immunogenicity: T-cell priming with aAPCs loaded with peptide/MHC and anti-CD28, pMHC multimer readout. Type of assay: cell-based, human. Particulars: Table 10b, pMHC multimer readout after T-cell priming. Here is the method: After three cycles of stimulation, the detection of peptide-reactive cells was performed by 2D multimer staining with B*44/SEQ ID NO: 469 (FIG. 3A), B*44/SEQ ID NO: 512 (FIG. 3B), B*44/SEQ ID NO: 9 (FIG. 3C), B*44/SEQ ID NO: 11 (D), B*44/SEQ ID NO: 17 (E), B*44/SEQ ID NO: 35 (F) or B*44/SEQ ID NO: 41 (FIG. 3G). Right panels (FIGS. 3A through 3G) show control staining of cells stimulated with irrelevant B*44/peptide complexes. Viable singlet cells were gated for CD8+ lymphocytes. Boolean gates helped excluding false-positive events detected with multimers specific for different peptides.
In order to obtain information regarding the immunogenicity of the TUMAPs of the present invention, the inventors performed investigations using an in vitro T-cell priming assay based on repeated stimulations of CD8+ T cells with artificial antigen presenting cells (aAPCs) loaded with peptide/MHC complexes and anti-CD28 antibody.
In order to perform in vitro stimulations by artificial antigen presenting cells loaded with peptide-MHC complex (pMHC) and anti-CD28 antibody, the inventors first isolated CD8+ T cells from fresh HLA-A*02 leukapheresis products via positive selection using CD8 microbeads (Miltenyi Biotec, Bergisch-Gladbach, Germany) of healthy donors obtained from the University clinics Mannheim, Germany, after informed consent.
PBMCs and isolated CD8+ lymphocytes were incubated in T-cell medium (TCM) until use consisting of RPMI-Glutamax (Invitrogen, Karlsruhe, Germany) supplemented with 10% heat inactivated human AB serum (PAN-Biotech, Aidenbach, Germany), 100 U/ml Penicillin/100 μg/ml Streptomycin (Cambrex, Cologne, Germany), 1 mM sodium pyruvate (CC Pro, Oberdorda, Germany), 20 μg/ml Gentamycin (Cambrex). 2.5 ng/ml IL-7 (PromoCell, Heidelberg, Germany) and 10 U/ml IL-2 (Novartis Pharma, Nümberg, Germany) were also added to the TCM at this step.
Generation of pMHC/anti-CD28 coated beads, T-cell stimulations and readout was performed in a highly defined in vitro system using four different pMHC molecules per stimulation condition and 8 different pMHC molecules per readout condition.
The purified co-stimulatory mouse IgG2a anti human CD28 Ab 9.3 (Jung et al., 1987) was chemically biotinylated using Sulfo-N-hydroxysuccinimidobiotin as recommended by the manufacturer (Perbio, Bonn, Germany). Beads used were 5.6 μm diameter streptavidin coated polystyrene particles (Bangs Laboratories, Illinois, USA).
800.000 beads/200 μl were coated in 96-well plates in the presence of 4×12.5 ng different biotin-pMHC, washed and 600 ng biotin anti-CD28 were added subsequently in a volume of 200 μl. Stimulations were initiated in 96-well plates by co-incubating 1×10^6 CD8+ T cells with 2×10^5 washed coated beads in 200 μl TCM supplemented with 5 ng/ml IL-12 (PromoCell) for 3 days at 37° C. Half of the medium was then exchanged by fresh TCM supplemented with 80 U/ml IL-2 and incubating was continued for 4 days at 37° C. This stimulation cycle was performed for a total of three times. For the pMHC multimer readout using 8 different pMHC molecules per condition, a two-dimensional combinatorial coding approach was used as previously described (Andersen et al., 2012) with minor modifications encompassing coupling to 5 different fluorochromes. Finally, multimeric analyses were performed by staining the cells with Live/dead near IR dye (Invitrogen, Karlsruhe, Germany), CD8-FITC antibody clone SK1 (BD, Heidelberg, Germany) and fluorescent pMHC multimers. For analysis, a BD LSRII SORP cytometer equipped with appropriate lasers and filters was used. Peptide specific cells were calculated as percentage of total CD8+ cells. Evaluation of multimeric analysis was done using the FlowJo software (Tree Star, Oregon, USA). In vitro priming of specific multimer+CD8+ lymphocytes was detected by comparing to negative control stimulations.

Another assay deals with HLA-B*44:05 (Homo sapiens, UniProt P01889, A223V/A65T/A93T/A95T/D201E/D98Y/E176V/E187L/E204Q/E69K/G107R/H137Y/K202T/L105A/L119I/N104T/N87E/Q56L/Q94N/R106L/R155S/R180D/S101N/S121R/S35A/S48T/T118I/V36M/W191S/Y91S). The assay is described as follows: MHC binding assay (UV-ligand exchange, β2m ELISA, peptide exchange yield). The settings on record: binding to HLA-B*44:05. In short, it runs like this:
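Binding is read as exchange yield, i.e. stabilized complex remaining after UV cleavage of a photolabile ligand in the presence of the candidate peptide. Streptavidin-captured monomers (100-fold dilution) are probed with HRP-anti-β2m, 1h at 37° C, TMB, A450. Standard curve: HLA-A*02:01/MLA-001 monomers at 15-500 ng/ml.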

As to “78 (TEFSNHINL; listed as Homo sapiens) [compound 78]”, the “Wells positive [%]” value with CD8+ T cells is “++ (20%-49% = ++)”. In the assay with HLA-B*44:05, the “Peptide exchange (MHC class I binding score, peptide exchange yield)” value (shortened to “Peptide exchange”) is “+++ (>50 = +++)”.
For “68 (NEIDIHSIYF; listed as Homo sapiens) [compound 68]” the same measures were “++ (20%-49% = ++)” and “++++ (>75% = ++++)”.
For “31 (MESAKETRY; listed as Homo sapiens) [compound 31]” the same measures were “+ (<20% = +)” and “+++ (>50 = +++)”.
Take “4 (AEALGAAKKL; listed as Homo sapiens) [compound 4]”: in the assay on CD8+ T cells, the “Wells positive [%]” value is “+ (<20% = +)”. In addition, in the assay with HLA-B*44:05, the “Peptide exchange” value is listed as “++ (>20% = ++)”.
For “56 (ALEEGGGYIF; listed as Homo sapiens) [compound 56]” the same measures were “+ (<20% = +)” and “+ (>10% = +)”.
For the substance “28 (QEFPAHSL; listed as Homo sapiens) [compound 28]”, in the assay on CD8+ T cells, the “Wells positive [%]” value is reported as “+ (<20% = +)”. In addition, the “Peptide exchange” value in the assay with HLA-B*44:05 was “+++ (>50 = +++)”.
For “24 (EELALRIGL; listed as Homo sapiens) [compound 24]” the same measures were “++++ (>=70% = ++++)” and “+++ (>50 = +++)”.
For “40 (REVDPDDSYVF; listed as Homo sapiens) [compound 40]” the same measures were “+ (<20% = +)” and “+++ (>50 = +++)”.
For “18 (QEAPRPASSL; listed as Homo sapiens) [compound 18]”, the “Wells positive [%]” value with CD8+ T cells was “+ (<20% = +)”. The “Peptide exchange” value with HLA-B*44:05 is listed as “+++ (>50 = +++)”.
For “30 (EEFCFSVRF; listed as Homo sapiens) [compound 30]” the same measures were “+ (<20% = +)” and “+++ (>50 = +++)”.
For “71 (AEVGDIIKV; listed as Homo sapiens) [compound 71]” the same measures were “++ (20%-49% = ++)” and “++ (>20% = ++)”.
For “42 (SEENTGKTYF; listed as Homo sapiens) [compound 42]” the same measures were “++ (20%-49% = ++)” and “+++ (>50 = +++)”.
For “7 (SESDLVNFI; listed as Homo sapiens) [compound 7]”, the “Wells positive [%]” value with CD8+ T cells was “+ (<20% = +)”. In the assay with HLA-B*44:05, the “Peptide exchange” value is on record as “+++ (>50 = +++)”.
On to “12 (KEVDPTGHSF; listed as Homo sapiens) [compound 12]”, for which the “Wells positive [%]” value in the assay on CD8+ T cells is recorded as “+ (<20% = +)”. Besides, the “Peptide exchange” value with HLA-B*44:05 was “+++ (>50 = +++)”.

Values taken from patent publication US12065471B2, “B*44 restricted peptides for use in immunotherapy against cancers and related methods” (Immatics Biotechnologies GmbH, priority 2018, dated 2024).
